# Assay results reported in PubChem BioAssay (NCI).
#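 Results reflect a 48-hour exposure of cells in 96-well plates to compound at five concentrations. Abbreviation: GI50, concentration required for 50% inhibition of growth. TGI denotes the concentration required for complete inhibition of growth.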
# What was measured:
# Test in all cases: NCI anticancer screen, dose series, 48 h
# IGROV1 ovarian = test system: IGROV1 ovarian
# HL-60(TB) leukemia = test system: HL-60(TB) leukemia
# ACHN renal = test system: ACHN renal
# MALME-3M melanoma = test system: MALME-3M melanoma
# MCF7 breast = test system: MCF7 breast
# HS 578T breast = test system: HS 578T breast
# SN12C renal = test system: SN12C renal
# HOP-92 NSCLC = test system: HOP-92 NSCLC
# M14 melanoma = test system: M14 melanoma
# SNB-19 CNS = test system: SNB-19 CNS
# SF-539 CNS = test system: SF-539 CNS
# HT29 colon = test system: HT29 colon
# RPMI-8226 leukemia = test system: RPMI-8226 leukemia
# UO-31 renal = test system: UO-31 renal
# BT-549 breast = test system: BT-549 breast
# K-562 leukemia = test system: K-562 leukemia
# NCI-H226 lung = test system: NCI-H226 lung
# SF-268 CNS = test system: SF-268 CNS
# RXF 393 renal = test system: RXF 393 renal
# TK-10 renal = test system: TK-10 renal
# SNB-75 CNS = test system: SNB-75 CNS
# HCT-15 colon = test system: HCT-15 colon
# T-47D breast = test system: T-47D breast
# CAKI-1 renal = test system: CAKI-1 renal
# A549 NSCLC = test system: A549 NSCLC
# PC-3 prostate = test system: PC-3 prostate
# NCI-H460 lung = test system: NCI-H460 lung
# OVCAR-5 ovarian = test system: OVCAR-5 ovarian
# OVCAR-4 ovarian = test system: OVCAR-4 ovarian
# MDA-MB-468 breast = test system: MDA-MB-468 breast
# SK-OV-3 ovarian = test system: SK-OV-3 ovarian
# MDA-MB-231 breast = test system: MDA-MB-231 breast
# CCRF-CEM leukemia = test system: CCRF-CEM leukemia
# UACC-257 melanoma = test system: UACC-257 melanoma
# HOP-62 NSCLC = test system: HOP-62 NSCLC
# DU-145 prostate = test system: DU-145 prostate
# U251 CNS = test system: U251 CNS
# KM12 colon = test system: KM12 colon
# MDA-MB-435 = test system: MDA-MB-435
# 786-0 renal = test system: 786-0 renal
# MOLT-4 leukemia = test system: MOLT-4 leukemia
# HCC-2998 colon = test system: HCC-2998 colon
# OVCAR-3 ovarian = test system: OVCAR-3 ovarian
# EKVX NSCLC = test system: EKVX NSCLC
# OVCAR-8 ovarian = test system: OVCAR-8 ovarian
# A498 renal = test system: A498 renal
# LOX IMVI melanoma = test system: LOX IMVI melanoma
# NCI-H522 lung = test system: NCI-H522 lung
# HCT-116 colon = test system: HCT-116 colon
# SK-MEL-5 melanoma = test system: SK-MEL-5 melanoma
# SK-MEL-2 melanoma = test system: SK-MEL-2 melanoma
# COLO 205 colon = test system: COLO 205 colon
# NCI-H23 lung = test system: NCI-H23 lung
# UACC-62 melanoma = test system: UACC-62 melanoma
# SW-620 colon = test system: SW-620 colon
# SF-295 CNS = test system: SF-295 CNS
# NCI/ADR-RES ovarian = test system: NCI/ADR-RES ovarian
# SR leukemia = test system: SR leukemia
# SK-MEL-28 melanoma = test system: SK-MEL-28 melanoma
compound,measurement,setting,value
COc1ccc(/C=C/c2nc3ccccc3c(=O)n2CC(=O)Nc2ccccc2)cc1,GI50,IGROV1 ovarian,12.6 µM
same,TGI,IGROV1 ovarian,> 100 µM
same,GI50,HL-60(TB) leukemia,> 100 µM
same,TGI,HL-60(TB) leukemia,> 100 µM
same,GI50,ACHN renal,0.718 µM
same,TGI,ACHN renal,2.49 µM
same,GI50,MALME-3M melanoma,5.2 µM
same,TGI,MALME-3M melanoma,55.9 µM
same,GI50,MCF7 breast,> 26 µM
same,TGI,MCF7 breast,> 100 µM
same,GI50,HS 578T breast,2.79 µM
same,TGI,HS 578T breast,> 92.5 µM
same,GI50,SN12C renal,1.82 µM
same,TGI,SN12C renal,> 36.6 µM
same,GI50,HOP-92 NSCLC,2.78 µM
same,TGI,HOP-92 NSCLC,13.3 µM
same,GI50,M14 melanoma,27 µM
same,TGI,M14 melanoma,> 51 µM
same,GI50,SNB-19 CNS,3.74 µM
same,TGI,SNB-19 CNS,> 73.9 µM
same,GI50,SF-539 CNS,3.42 µM
same,TGI,SF-539 CNS,14.5 µM
same,GI50,HT29 colon,> 100 µM
same,TGI,HT29 colon,> 100 µM
same,GI50,RPMI-8226 leukemia,> 100 µM
same,TGI,RPMI-8226 leukemia,> 100 µM
same,GI50,UO-31 renal,1.44 µM
same,TGI,UO-31 renal,3.64 µM
same,GI50,BT-549 breast,> 74.6 µM
same,TGI,BT-549 breast,> 100 µM
same,GI50,K-562 leukemia,> 100 µM
same,TGI,K-562 leukemia,> 100 µM
same,GI50,NCI-H226 lung,2.42 µM
same,TGI,NCI-H226 lung,16.4 µM
same,GI50,SF-268 CNS,19.1 µM
same,TGI,SF-268 CNS,> 100 µM
same,GI50,RXF 393 renal,2.23 µM
same,TGI,RXF 393 renal,10.6 µM
same,GI50,TK-10 renal,2.05 µM
same,TGI,TK-10 renal,5.43 µM
same,GI50,SNB-75 CNS,1.27 µM
same,TGI,SNB-75 CNS,4.97 µM
same,GI50,HCT-15 colon,> 100 µM
same,TGI,HCT-15 colon,> 100 µM
same,GI50,T-47D breast,1.8 µM
same,TGI,T-47D breast,> 28.9 µM
same,GI50,CAKI-1 renal,1.7 µM
same,TGI,CAKI-1 renal,> 23.9 µM
same,GI50,A549 NSCLC,0.731 µM
same,TGI,A549 NSCLC,> 42.7 µM
same,GI50,PC-3 prostate,> 100 µM
same,TGI,PC-3 prostate,> 100 µM
same,GI50,NCI-H460 lung,2.25 µM
same,TGI,NCI-H460 lung,> 100 µM
same,GI50,OVCAR-5 ovarian,6.47 µM
same,TGI,OVCAR-5 ovarian,> 100 µM
same,GI50,OVCAR-4 ovarian,0.734 µM
same,GI50,MDA-MB-468 breast,6.23 µM
same,TGI,MDA-MB-468 breast,> 53.7 µM
same,GI50,SK-OV-3 ovarian,2.98 µM
same,TGI,SK-OV-3 ovarian,18.7 µM
same,GI50,MDA-MB-231 breast,2.01 µM
same,TGI,MDA-MB-231 breast,7.54 µM
same,GI50,CCRF-CEM leukemia,> 100 µM
same,TGI,CCRF-CEM leukemia,> 100 µM
same,GI50,UACC-257 melanoma,> 85.1 µM
same,TGI,UACC-257 melanoma,> 100 µM
same,GI50,HOP-62 NSCLC,4.31 µM
same,TGI,HOP-62 NSCLC,19.2 µM
same,GI50,DU-145 prostate,> 100 µM
same,TGI,DU-145 prostate,> 100 µM
same,GI50,U251 CNS,0.972 µM
same,TGI,U251 CNS,10.9 µM
same,GI50,KM12 colon,> 100 µM
same,TGI,KM12 colon,> 100 µM
same,GI50,MDA-MB-435,> 93.4 µM
same,TGI,MDA-MB-435,> 100 µM
same,GI50,786-0 renal,1.19 µM
same,TGI,786-0 renal,3.18 µM
same,GI50,MOLT-4 leukemia,> 100 µM
same,TGI,MOLT-4 leukemia,> 100 µM
same,GI50,HCC-2998 colon,> 100 µM
same,TGI,HCC-2998 colon,> 100 µM
same,GI50,OVCAR-3 ovarian,3.91 µM
same,TGI,OVCAR-3 ovarian,> 100 µM
same,GI50,EKVX NSCLC,> 69.4 µM
same,TGI,EKVX NSCLC,> 100 µM
same,GI50,OVCAR-8 ovarian,4.74 µM
same,TGI,OVCAR-8 ovarian,> 100 µM
same,GI50,A498 renal,2.23 µM
same,TGI,A498 renal,5.2 µM
same,GI50,LOX IMVI melanoma,4.38 µM
same,TGI,LOX IMVI melanoma,> 100 µM
same,GI50,NCI-H522 lung,16.8 µM
same,TGI,NCI-H522 lung,> 100 µM
same,GI50,HCT-116 colon,1.26 µM
same,TGI,HCT-116 colon,> 39.4 µM
same,GI50,SK-MEL-5 melanoma,> 91.4 µM
same,TGI,SK-MEL-5 melanoma,> 100 µM
same,GI50,SK-MEL-2 melanoma,> 77.8 µM
same,TGI,SK-MEL-2 melanoma,> 100 µM
same,GI50,COLO 205 colon,> 37.3 µM
same,TGI,COLO 205 colon,> 77.7 µM
same,GI50,NCI-H23 lung,6.01 µM
same,TGI,NCI-H23 lung,> 62.4 µM
same,GI50,UACC-62 melanoma,> 62.4 µM
same,TGI,UACC-62 melanoma,> 100 µM
same,GI50,SW-620 colon,> 21.3 µM
same,TGI,SW-620 colon,> 100 µM
same,GI50,SF-295 CNS,2.48 µM
same,TGI,SF-295 CNS,30.8 µM
same,GI50,NCI/ADR-RES ovarian,4.64 µM
same,TGI,NCI/ADR-RES ovarian,> 100 µM
same,GI50,SR leukemia,> 100 µM
same,TGI,SR leukemia,> 100 µM
same,GI50,SK-MEL-28 melanoma,> 100 µM
same,TGI,SK-MEL-28 melanoma,> 100 µM
